Among the test systems are 786-0; CAKI-1; EKVX; HCT-15; IGROV-1; KM12; LOX IMVI; M14; MDA-MB-231; MDA-MB-435; MDA-N; NCI-H23; NCI-H460; OVCAR-3; SF-539; SK-MEL-2; SW-620; T47D; UACC-62; SN12C.
Holding throughout (assay): inhibition of tumour cell growth, NCI panel, 48 h

The structures appear in SMILES notation.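 Test compounds were applied to cells in 96-well plates for 48 hours at 5 doses. GI50 = concentration required for 50% inhibition of growth.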 Activity calls are given as the source filed them. No stated cut-off is given here; in the data, active = GI50 up to about 1.1 µM and inactive = higher.

Regarding `Cc1nn(-c2ccccc2)c2c1CC(=O)Nc1ccccc1-2`, the GI50 in the experiment with 786-0 was 0.951 µM (active); with CAKI-1 it was 2.82 µM (inactive); in the experiment on EKVX it was 9.66 µM (inactive); with HCT-15, 0.618 µM; with IGROV-1 it was 1.6 µM (inactive); with KM12, 0.571 µM (active). Further, the GI50 in the experiment on LOX IMVI was 0.507 µM (active); in the experiment on M14 it was 0.553 µM (active); with MDA-MB-231 it was 1.48 µM (inactive); in the experiment with MDA-MB-435, 0.204 µM (active); with MDA-N, 0.187 µM (active); in the experiment with NCI-H23, 1.6 µM (inactive). Further, the GI50 was 0.521 µM (active) in the experiment with NCI-H460; 0.482 µM (active) with OVCAR-3; 0.607 µM (active) in the experiment with SF-539; 1.65 µM (inactive) with SK-MEL-2; 0.374 µM (active) in the experiment on SW-620; > 10 µM (inactive) with T47D. Further, the GI50 in the experiment with UACC-62 is 0.521 µM (active).
Consider `O=[N+]([O-])/C=C(\CS(=O)(=O)c1ccccc1)c1ccc2c(c1)OCO2`, for which the GI50 in the experiment with 786-0 was 38.5 µM (inactive); in the experiment on CAKI-1 it was 29.2 µM (inactive); with EKVX, > 100 µM (inactive); with HCT-15, 37.2 µM; with IGROV-1 it was 80.5 µM (inactive); with KM12, 28.4 µM (inactive). Moreover, the GI50 is 37.2 µM (inactive) in the experiment with LOX IMVI; 20.8 µM (inactive) in the experiment on M14; 23.1 µM (inactive) in the experiment with MDA-MB-231; 23.8 µM (inactive) in the experiment with MDA-MB-435; 39.2 µM (inactive) in the experiment with MDA-N; 5.69 µM (inactive) with NCI-H23. The GI50 with OVCAR-3 is 28.4 µM (inactive); in the experiment on SF-539, > 100 µM (inactive); in the experiment on SN12C, 39.7 µM (inactive); in the experiment on SW-620, 75.3 µM (inactive); with T47D it was > 100 µM (inactive); with UACC-62 it was 48.2 µM (inactive).
Turning to `CCCC(=O)Nc1cc(/C=C/C(=O)N2CC(CCl)c3c2cc([N+](=O)[O-])c2ccccc32)n(C)c1` (configuration not stated), the GI50 with 786-0 is > 60.8 µM (inactive); in the experiment with CAKI-1, 47.1 µM (inactive); in the experiment on HCT-15 it was above 4.65 µM; with IGROV-1 it was > 100 µM (inactive); in the experiment on M14, > 100 µM (inactive); in the experiment with MDA-MB-231, > 100 µM (inactive). Moreover, the GI50 was > 100 µM (inactive) with MDA-MB-435; > 100 µM (inactive) in the experiment on MDA-N; 1 µM (active) in the experiment with NCI-H23; 7.57 µM (inactive) with NCI-H460; > 100 µM (inactive) with OVCAR-3; 56.1 µM (inactive) in the experiment with SF-539. Also, the GI50 with SK-MEL-2 was > 100 µM (inactive); in the experiment with SN12C it was > 100 µM (inactive); in the experiment with SW-620 it was > 100 µM (inactive); in the experiment on T47D it was > 100 µM (inactive); in the experiment on UACC-62, 8.38 µM (inactive).
In the case of `COc1cccc(C=C2N=C(c3ccccc3)N(n3c(-c4ccccc4)nc4ccccc4c3=O)C2=O)c1`, the GI50 in the experiment with 786-0 was 83.4 µM (inactive); in the experiment on CAKI-1 it was 41.2 µM (inactive); in the experiment on EKVX, 43.6 µM (inactive); with HCT-15, 54.3 µM; in the experiment on IGROV-1, 30.1 µM (inactive); in the experiment on KM12 it was 37.9 µM (inactive). The GI50 in the experiment with LOX IMVI is 62.5 µM (inactive); in the experiment with M14, 45.1 µM (inactive); with MDA-MB-231, 57.9 µM (inactive); with MDA-MB-435 it was > 100 µM (inactive); with MDA-N it was 48.3 µM (inactive); in the experiment with NCI-H23 it was 71.9 µM (inactive). For the same compound, the GI50 is 35.2 µM (inactive) in the experiment on NCI-H460; 43.2 µM (inactive) with SF-539; 57.8 µM (inactive) in the experiment with SN12C; 74.3 µM (inactive) with SW-620; 26.5 µM (inactive) in the experiment on T47D; 26.2 µM (inactive) with UACC-62.
Turning to `Cc1c(CCOC=O)c(=O)[nH]c2nncn12`, the GI50 with 786-0 is > 100 µM (inactive); with CAKI-1, > 10 µM (inactive); in the experiment on EKVX, > 100 µM (inactive); with HCT-15, above 100 µM; in the experiment with IGROV-1, > 100 µM (inactive); in the experiment with KM12, > 100 µM (inactive). For the same compound, the GI50 with LOX IMVI, in the experiment on M14, in the experiment with MDA-MB-231, with MDA-MB-435, with MDA-N and with NCI-H23 was > 100 µM (inactive) each time. For the same compound, the GI50 in the experiment with NCI-H460, with OVCAR-3, in the experiment on SF-539, with SN12C, in the experiment on SW-620 and with T47D was > 100 µM (inactive) each time. Further, the GI50 with UACC-62 was > 100 µM (inactive).
In the case of `CCCCCCc1nn2c(-c3ccc(C)cc3)nnc2s1`, the GI50 with 786-0 is > 100 µM (inactive); in the experiment with CAKI-1, > 100 µM (inactive); in the experiment with EKVX it was 76.9 µM (inactive); in the experiment on HCT-15 it was above 100 µM; in the experiment with KM12, > 100 µM (inactive); in the experiment with M14, > 100 µM (inactive). Further, the GI50 is > 100 µM (inactive) with MDA-MB-231; > 100 µM (inactive) in the experiment on MDA-MB-435; > 100 µM (inactive) in the experiment on MDA-N; > 100 µM (inactive) in the experiment on NCI-H23; 80 µM (inactive) with NCI-H460; > 100 µM (inactive) with OVCAR-3. The GI50 with SF-539 is 81.8 µM (inactive); in the experiment with SK-MEL-2, > 100 µM (inactive); with SN12C, > 100 µM (inactive); with SW-620, > 100 µM (inactive); with T47D, 58.7 µM (inactive); in the experiment on UACC-62, > 100 µM (inactive).
As for `C=C(C)CC1(O[Si](C)(C)C)C(=O)C(OCC)=C1OCC` (configuration not stated), the GI50 with 786-0 was > 100 µM (inactive); with CAKI-1, > 100 µM (inactive); in the experiment with EKVX, > 100 µM (inactive); in the experiment with HCT-15, above 100 µM; in the experiment on IGROV-1, > 100 µM (inactive); with KM12, > 100 µM (inactive). Besides, the GI50 in the experiment on LOX IMVI, with M14, in the experiment with MDA-MB-231, in the experiment with MDA-MB-435, in the experiment with NCI-H23 and in the experiment on NCI-H460 was > 100 µM (inactive) each time. Also, the GI50 in the experiment on OVCAR-3, in the experiment on SF-539, with SK-MEL-2, with SN12C, in the experiment with SW-620 and in the experiment with T47D was > 100 µM (inactive) each time. The GI50 in the experiment on UACC-62 is > 100 µM (inactive).
`CC(C)(C)OC(=O)N1C(c2cccnc2)=CC[C@H]2C3CC=C(c4cccnc4)[C@@]3(C)CC[C@@H]21` (some centres not stated): the GI50 in the experiment with 786-0 is 4.86 µM (inactive); in the experiment with CAKI-1, 6.55 µM (inactive); with EKVX it was 2.11 µM (inactive); with HCT-15, 3.52 µM; in the experiment with IGROV-1 it was 4.16 µM (inactive); in the experiment on KM12 it was 4.06 µM (inactive). Also, the GI50 was 2.71 µM (inactive) in the experiment with LOX IMVI; 4.75 µM (inactive) in the experiment on M14; 2.13 µM (inactive) with MDA-MB-435; 3.05 µM (inactive) with MDA-N; 3.4 µM (inactive) with NCI-H23; 3.51 µM (inactive) in the experiment with NCI-H460. Also, the GI50 with OVCAR-3 is 3.44 µM (inactive); in the experiment with SF-539 it was 3.82 µM (inactive); in the experiment with SK-MEL-2, 2.95 µM (inactive); in the experiment on SN12C, 3.67 µM (inactive); in the experiment on SW-620, 3.83 µM (inactive); in the experiment on T47D, 4.16 µM (inactive). In the experiment with UACC-62, the GI50 is 2.61 µM (inactive).
As for `C1=CC2C(C3CN(c4ccccc4)N=C13)C1C3C4C=CC21C=CC43` (configuration not stated), the GI50 was > 100 µM (inactive) in the experiment with 786-0; > 100 µM (inactive) in the experiment with CAKI-1; > 100 µM (inactive) in the experiment with EKVX; above 100 µM in the experiment with HCT-15; > 100 µM (inactive) in the experiment on IGROV-1; > 100 µM (inactive) with KM12. The GI50 in the experiment with LOX IMVI, in the experiment with M14, in the experiment with MDA-MB-231, in the experiment with MDA-MB-435, in the experiment on NCI-H23 and with NCI-H460 was > 100 µM (inactive) each time. For the same compound, the GI50 in the experiment with OVCAR-3 is > 100 µM (inactive); in the experiment with SF-539, > 100 µM (inactive); in the experiment with SK-MEL-2, > 100 µM (inactive); in the experiment on SN12C, > 100 µM (inactive); in the experiment with SW-620, > 100 µM (inactive); with T47D it was 0.189 µM (active). The GI50 with UACC-62 is > 100 µM (inactive).
Turning to `CCC1=NC(N/N=C/c2ccco2)=N/C1=C\c1ccco1`, the GI50 with 786-0 is > 100 µM (inactive); in the experiment on CAKI-1, > 100 µM (inactive); in the experiment with EKVX, > 100 µM (inactive); in the experiment with HCT-15, above 100 µM; with IGROV-1, > 100 µM (inactive); in the experiment with KM12 it was > 100 µM (inactive). Further, the GI50 in the experiment on LOX IMVI was > 100 µM (inactive); with M14, > 100 µM (inactive); with MDA-MB-231 it was > 100 µM (inactive); in the experiment with MDA-MB-435, 52 µM (inactive); in the experiment on MDA-N, > 100 µM (inactive); with NCI-H23 it was > 100 µM (inactive). Moreover, the GI50 in the experiment on NCI-H460 was 52 µM (inactive); with SK-MEL-2, > 100 µM (inactive); in the experiment on SN12C it was > 100 µM (inactive); in the experiment with SW-620 it was > 100 µM (inactive); in the experiment with T47D, > 100 µM (inactive); in the experiment on UACC-62, > 100 µM (inactive).
For the compound `Cc1ncc([N+](=O)[O-])n1CCNC(=O)CCCCn1ccnc1[N+](=O)[O-]`, the GI50 was > 100 µM (inactive) in the experiment with 786-0; > 100 µM (inactive) in the experiment on CAKI-1; above 100 µM with HCT-15; > 100 µM (inactive) in the experiment with IGROV-1; > 100 µM (inactive) with KM12; > 100 µM (inactive) with M14. Also, the GI50 with MDA-MB-231, with MDA-MB-435, with MDA-N, in the experiment with NCI-H23, in the experiment on NCI-H460 and in the experiment on OVCAR-3 was > 100 µM (inactive) throughout. Moreover, the GI50 with SF-539, in the experiment with SK-MEL-2, in the experiment with SN12C, with SW-620, in the experiment on T47D and with UACC-62 was > 100 µM (inactive) throughout.
